Laboratory results taken from patent US20220119411A1, “IMMUNOMODULATORS, COMPOSITIONS AND METHODS THEREOF” (BETTA PHARMACEUTICALS CO., LTD, priority 2018, published 2022).

molecular target: T1, PD-1/PD-L1 protein/protein interaction (Homo sapiens, UniProt Q9NZQ7); experiment: PD-1/PD-L1 homogenous time-resolved fluorescence (HTRF) binding assay; conditions: recombinant human PD-L1 (19-238)-His 10 nM, human PD-1 (25-167)-Fc 3 nM, 25° C., PBS pH 7.4
T1 construct: Recombinant human PD-L1 protein (19-238) with a His-tag at the C-terminus; purchased AcroBiosystems PD1-H5229 (PD-L1); PD1-H5257 (PD-1)
T1 sequence (Q9NZQ7 19-238): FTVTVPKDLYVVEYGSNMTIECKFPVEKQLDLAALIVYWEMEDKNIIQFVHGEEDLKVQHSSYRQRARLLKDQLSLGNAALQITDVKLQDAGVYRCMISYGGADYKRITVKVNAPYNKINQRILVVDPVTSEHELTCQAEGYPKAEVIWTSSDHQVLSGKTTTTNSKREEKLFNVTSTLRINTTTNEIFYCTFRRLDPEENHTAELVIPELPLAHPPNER
Procedure: Resolved Fluorescence (HTRF) Binding Assay
The assays were conducted in a standard black 384-well polystyrene plate with a final volume of 20 μL. Inhibitors were first serially diluted in DMSO and then added to the plate wells before the addition of other reaction components. The final concentration of DMSO in the assay was 1%. The assays were carried out at 25° C. in the PBS buffer (pH 7.4) with 0.05% Tween-20 and 0.1% BSA. Recombinant human PD-L1 protein (19-238) with a His-tag at the C-terminus was purchased from AcroBiosy stems (PD1-H5229). Recombinant human PD-1 protein (25-167) with Fc tag at the C-terminus was also purchased from AcroBiosystems (PD1-H5257). PD-L1 and PD-1 proteins were diluted in the assay buffer and 10 μL was added to the plate well. Plates were centrifuged and proteins were preincubated with inhibitors for 40 min. The incubation was followed by the addition of 10 μL of HTRF detection buffer supplemented with Europium cryptate-labeled anti-human IgG (PerkinElmer-AD0212) specific for Fc and anti-His antibody conjugated to SureLight®—Allophycocyanin (APC, PerkinElmer-AD0059H). After centrifugation, the plate was incubated at 25° C. for 60 min. Before reading on a PHERAstar FS plate reader (665 nm/620 nm ratio). Final concentrations in the assay were—3 nM PD1, 10 nM PD-L1, 1 nM europium anti-human IgG and 20 nM anti-His-Allophycocyanin. IC50 determination was performed by fitting the curve of percent control activity versus the log of the inhibitor concentration using the GraphPad Prism 5.0 software.
Data obtained for the Example compounds using the PD-1/PD-L1 homogenous time-resolved fluorescence (HTRF) binding assay described in Example A is provided in Table 2.

Structure (SMILES)	IC50 [nM]
Cc1c(OCCCN2CCC(O)C2)cccc1-c1cccc2c1CCN2C(=O)c1nc2c(n1C)CNCC2 (centres unmarked) [Example 39, (4-(3-(3-(3-hydroxypyrrolidin-1-yl)propoxy)-2-methylphenyl)indolin-1-yl)(3-methyl-4,5,6,7-tetrahydro-3H-imidazo[4,5-c]pyridin-2-yl)methanone]	≤ 25
O=C(O)CN1CCc2nc(C(=O)N3CCc4c(-c5ccc6c(c5)OCCO6)cccc43)sc2C1 [Example 55, 2-(2-(4-(2,3-dihydrobenzo[b][1,4]dioxin-6-yl)indoline-1-carbonyl)-6,7-dihydrothiazolo[5,4-c]pyridin-5(4H)-yl)acetic acid]	25 to 100
O=C(c1cn2c(n1)CNCC2)N1CCc2c(-c3cccc4c3cnn4CCCN3CCOCC3)cccc21 [Example 47, (4-(1-(3-morpholinopropyl)-1H-indazol-4-yl)indolin-1-yl)(5,6,7,8-tetrahydroimidazo[1,2-a]pyrazin-2-yl)methanone]	25 to 100
O=C(O)CN1CCc2nc(C(=O)N3CCc4c(-c5cccc6c5CCN6CCCN5CCOCC5)cccc43)sc2C1 [Example 6, 2-(2-(1′-(3-morpholinopropyl)-[4,4′-biindoline]-1-carbonyl)-6,7-dihydrothiazolo[5,4-c]pyridin-5(4H)-yl)acetic acid]	≤ 25
Cn1ncc2c(-c3cccc4c3CCN4C(=O)c3cn4c(n3)CNCC4)cccc21 [Example 48, (4-(1-methyl-1H-indazol-4-yl)indolin-1-yl)(5,6,7,8-tetrahydroimidazo[1,2-a]pyrazin-2-yl)methanone]	100 to 200
Cn1ncc2c(-c3cccc4c3CCN4C(=O)c3nc4c(s3)CN(CC(=O)O)CC4)cccc21 [Example 30, 2-(2-(4-(1-methyl-1H-indazol-4-yl)indoline-1-carbonyl)-6,7-dihydrothiazolo[5,4-c]pyridin-5(4H)-yl)acetic acid]	≤ 25
Cc1c(OCCCN2CCC(O)C2)cccc1-c1cccc2c1CCN2C(=O)c1nc2c(n1C)CCN(CC(=O)O)C2 (centres unmarked) [Example 37, 2-(2-(4-(3-(3-(3-hydroxypyrrolidin-1-yl)propoxy)-2-methylphenyl)indoline-1-carbonyl)-1-methyl-1,4,6,7-tetrahydro-5H-imidazo[4,5-c]pyridin-5-yl)acetic acid]	≤ 25
O=C(O)CN1CCc2nc(C(=O)N3CCc4c(-c5cccc6c5CCN6CCCN5CCC(O)C5)cccc43)sc2C1 (centres unmarked) [Example 11, 2-(2-(1′-(3-(3-hydroxypyrrolidin-1-yl)propyl)-[4,4′-biindoline]-1-carbonyl)-6,7-dihydrothiazolo[5,4-c]pyridin-5(4H)-yl)acetic acid]	≤ 25
Cn1c(C(=O)N2CCCc3c(-c4cccc(OCCN5CCOCC5)c4)cccc32)nc2c1CCN(CC(=O)O)C2 [Example 52, 2-(1-methyl-2-(5-(3-(2-morpholinoethoxy)phenyl)-1,2,3,4-tetrahydroquinoline-1-carbonyl)-1,4,6,7-tetrahydro-5H-imidazo[4,5-c]pyridin-5-yl)acetic acid]	≤ 25
Cc1nc(C(=O)N2CCc3c(-c4cccc5c4CCN5C(=O)CCN4CCC(O)C4)cccc32)sc1CNCCO (centres unmarked) [Example 46, 1-(1′-(5-(((2-hydroxyethyl)amino)methyl)-4-methylthiazole-2-carbonyl)-[4,4′-biindolin]-1-yl)-3-(3-hydroxypyrrolidin-1-yl)propan-1-one]	≤ 25
Cc1c(NC(=O)CCN2CCC(O)C2)cccc1-c1cccc2c1CCN2C(=O)c1nc2c(n1C)CNCC2 (centres unmarked) [Example 34, 3-(3-hydroxypyrrolidin-1-yl)-N-(2-methyl-3-(1-(3-methyl-4,5,6,7-tetrahydro-3H-imidazo[4,5-c]pyridine-2-carbonyl)indolin-4-yl)phenyl)propanamide]	≤ 25
